Test results published in PubChem BioAssay AID330 (DTP/NCI, 2004).
Several values for one entry are separate records, joined by “and”; a condition that tells them apart may be missing. Equal values may be shown once. Toxic doses and inconclusive results are not listed. The calls were made as follows: active = survival T/C of 150% or more; inactive = T/C below 125% in these data.

System: P388 leukemia ip, CD2F1 mice, survival T/C
Experiment: NCI In Vivo Anticancer Drug Screen. Data for tumor model P388 Leukemia (intraperitoneal) in CD2F1 (CDF1) mice
Conditions: endpoint: median survival time, higher = longer survival
Method in brief: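 Mice carrying the transplanted tumor received test compound or vehicle. Survival was recorded in each group, and the value is the treated-group measurement divided by that of the vehicle-treated control group.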

[1] = dose: 50.0 mg/kg/injection, schedule: Q01DX005 (ip), vehicle: saline with Tween-80
[2] = dose: 100.0 mg/kg/injection, schedule: Q01DX005 (ip), vehicle: saline with Tween-80
[3] = dose: 200.0 mg/kg/injection, schedule: Q01DX005 (ip), vehicle: saline with Tween-80
[4] = dose: 60.0 mg/kg/injection, schedule: Q01DX005 (ip), vehicle: Klucel (hydroxypropylcellulose) (HPC)
[5] = dose: 120.0 mg/kg/injection, schedule: Q01DX005 (ip), vehicle: Klucel (hydroxypropylcellulose) (HPC)
[6] = dose: 240.0 mg/kg/injection, schedule: Q01DX005 (ip), vehicle: Klucel (hydroxypropylcellulose) (HPC)
[7] = dose: 50.0 mg/kg/injection, schedule: Q01DX005 (ip), vehicle: Klucel (hydroxypropylcellulose) (HPC)
[8] = dose: 100.0 mg/kg/injection, schedule: Q01DX005 (ip), vehicle: Klucel (hydroxypropylcellulose) (HPC)
[9] = dose: 200.0 mg/kg/injection, schedule: Q01DX005 (ip), vehicle: Klucel (hydroxypropylcellulose) (HPC)
[10] = dose: 50.0 mg/kg/injection, schedule: Q01DX009 (ip), vehicle: saline
[11] = dose: 100.0 mg/kg/injection, schedule: Q01DX009 (ip), vehicle: saline
[12] = dose: 400.0 mg/kg/injection, schedule: Q01DX001 (ip), vehicle: Klucel (hydroxypropylcellulose) (HPC)
[13] = dose: 50.0 mg/kg/injection, schedule: Q01DX009 (ip), vehicle: saline with Tween-80
[14] = dose: 100.0 mg/kg/injection, schedule: Q01DX009 (ip), vehicle: saline with Tween-80

Measured: T/C

O=S(=O)(O)O
inactive: dose: 30.0 mg/kg/injection, schedule: Q01DX009 (ip), vehicle: water 108 % of control | dose: 100.0 mg/kg/injection, schedule: Q01DX009 (ip), vehicle: water 86 % of control

CC(=O)c1ccccc1NC(=O)COc1ccccc1OCC(=O)Nc1ccccc1C(C)=O
inactive: [1] 100 % of control | [2] 92 % of control | [3] 96 % of control

O=C(Cc1nc2ccc([N+](=O)[O-])cc2nc1CC(=O)c1ccccc1)c1ccccc1
inactive: dose: 60.0 mg/kg/injection, schedule: Q01DX005 (ip), vehicle: saline with Tween-80 110 % of control | dose: 120.0 mg/kg/injection, schedule: Q01DX005 (ip), vehicle: saline with Tween-80 103 % of control | dose: 240.0 mg/kg/injection, schedule: Q01DX005 (ip), vehicle: saline with Tween-80 100 % of control

CNC(=O)NC(c1cc(OC)c(O)c(OC)c1)c1cc2c(cc1O)OCO2 (stereo not drawn)
inactive: [4] 95 % of control | [5] 94 % of control | [6] 87 % of control

COc1ccccc1-n1c(Cc2cccc3ccccc23)nnc1SCC(=O)O
inactive: [7] 100 % of control | [8] 100 % of control | [9] 100 % of control

O=C(O)c1cnc2cc3c(cc2c1Nc1cccc(Cl)c1)OCO3
inactive: [4] 93 % of control | [5] 105 % of control | [6] 106 % of control

N#CC(C#N)=Cc1ccc(N2CCCCC2)cc1
inactive: [10] 87 % of control | [11] 88 % of control | dose: 200.0 mg/kg/injection, schedule: Q01DX009 (ip), vehicle: saline 100 % of control

O=C1C2CCCN2C(=O)N1c1ccc([N+](=O)[O-])cc1 (stereo not drawn)
inactive: dose: 100.0 mg/kg/injection, schedule: Q01DX001 (ip), vehicle: Klucel (hydroxypropylcellulose) (HPC) 97 % of control | dose: 200.0 mg/kg/injection, schedule: Q01DX001 (ip), vehicle: Klucel (hydroxypropylcellulose) (HPC) 97 % of control | [12] 99 % of control

CCC1(O)C(=O)c2ccccc2N(c2ccccc2)C1=O (stereo not drawn)
inactive: [4] 91 % of control | [5] 90 % of control | [6] 90 % of control

C(=Nc1ccccc1)C1CCCC[N-]1.C(=Nc1ccccc1)C1CCCC[N-]1.[Cu+2].[O-][Cl+3]([O-])([O-])O (stereo not drawn)
inactive: dose: 4.5 mg/kg/injection, schedule: Q01DX009 (ip), vehicle: saline with Tween-80 90 % of control | dose: 9.0 mg/kg/injection, schedule: Q01DX009 (ip), vehicle: saline with Tween-80 97 % of control | dose: 18.0 mg/kg/injection, schedule: Q01DX009 (ip), vehicle: saline with Tween-80 97 % of control | dose: 18.75 mg/kg/injection, schedule: Q01DX009 (ip), vehicle: saline with Tween-80 97 % of control | [13] 96 % of control

COc1cc2c(c(OC)c1OC)-c1ccc(O)c(=O)cc1C(NC(C)=O)CC2 (stereo not drawn)
inactive: dose: 2.5 mg/kg/injection, schedule: Q01DX009 (ip), vehicle: Klucel (hydroxypropylcellulose) (HPC) 100 % of control | dose: 5.0 mg/kg/injection, schedule: Q01DX009 (ip), vehicle: Klucel (hydroxypropylcellulose) (HPC) 99 % of control | dose: 10.0 mg/kg/injection, schedule: Q01DX009 (ip), vehicle: Klucel (hydroxypropylcellulose) (HPC) 100 % of control and 102 % of control | dose: 20.0 mg/kg/injection, schedule: Q01DX009 (ip), vehicle: Klucel (hydroxypropylcellulose) (HPC) 107 % of control and 115 % of control | dose: 40.0 mg/kg/injection, schedule: Q01DX009 (ip), vehicle: Klucel (hydroxypropylcellulose) (HPC) 108 % of control | dose: 80.0 mg/kg/injection, schedule: Q01DX009 (ip), vehicle: Klucel (hydroxypropylcellulose) (HPC) 110 % of control

OCC1OC(n2ncc3ccccc32)C(O)C1O (stereo not drawn)
inactive: dose: 6.25 mg/kg/injection, schedule: Q01DX009 (ip), vehicle: saline with Tween-80 97 % of control | dose: 12.5 mg/kg/injection, schedule: Q01DX009 (ip), vehicle: saline with Tween-80 92 % of control | dose: 25.0 mg/kg/injection, schedule: Q01DX009 (ip), vehicle: saline with Tween-80 106 % of control | dose: 32.0 mg/kg/injection, schedule: Q01DX002 (ip), vehicle: saline with Tween-80 114 % of control and 90 % of control | [13] 106 % of control | dose: 64.0 mg/kg/injection, schedule: Q01DX002 (ip), vehicle: saline with Tween-80 106 % of control | [14] 100 % of control | dose: 128.0 mg/kg/injection, schedule: Q01DX002 (ip), vehicle: saline with Tween-80 112 % of control and 116 % of control

N/C(Cc1noc2ccc(F)cc12)=N\O
inactive: [10] 107 % of control | [11] 107 % of control

Nc1nc(-c2cc(-c3cccs3)nc(N)n2)cc(-c2cccs2)n1
inactive: dose: 60.0 mg/kg/injection, schedule: Q01DX005 (ip), vehicle: saline 97 % of control | dose: 120.0 mg/kg/injection, schedule: Q01DX005 (ip), vehicle: saline 100 % of control

Nc1cnc2nc(N)[nH]c(=O)c2c1
inactive: dose: 100.0 mg/kg/injection, schedule: Q01DX009 (ip), vehicle: saline sonified 120 % of control | dose: 200.0 mg/kg/injection, schedule: Q01DX009 (ip), vehicle: saline sonified 110 % of control | dose: 400.0 mg/kg/injection, schedule: Q01DX009 (ip), vehicle: saline sonified 105 % of control

CCOC(=O)C1(C)C(=O)C=C(c2ccccc2)CC1c1ccccc1 (stereo not drawn)
inactive: [1] 95 % of control | [2] 100 % of control | [3] 95 % of control

S=C(N\N=C/C(/C=C/c1ccccc1)=N\NC(=S)Nc1ccc(Cl)cc1)Nc1ccc(Cl)cc1
inactive: [12] 88 % of control

CCC(=O)c1ccc(O)c(O)c1
inactive: [13] 104 % of control | [14] 105 % of control

CC(=O)OCc1cc(-c2nc3ccccc3[nH]c2=O)nn1-c1ccc(Cl)cc1
inactive: dose: 25.0 mg/kg/injection, schedule: Q01DX005 (ip), vehicle: distilled water + alcohol 93 % of control | dose: 50.0 mg/kg/injection, schedule: Q01DX005 (ip), vehicle: distilled water + alcohol 90 % of control | dose: 100.0 mg/kg/injection, schedule: Q01DX005 (ip), vehicle: distilled water + alcohol 86 % of control | dose: 200.0 mg/kg/injection, schedule: Q01DX005 (ip), vehicle: distilled water + alcohol 87 % of control

Cc1c(C)n(C)c(=S)n(C)c1=S
inactive: [7] 97 % of control | [8] 99 % of control | [9] 97 % of control

CCCCCCCCOC(=O)c1ccc(I)cc1
inactive: [13] 97 % of control | [14] 101 % of control | dose: 200.0 mg/kg/injection, schedule: Q01DX009 (ip), vehicle: saline with Tween-80 97 % of control

c1ccc2c(c1)CCc1c(-c3ccncc3)n[nH]c1-2
inactive: dose: 12.5 mg/kg/injection, schedule: Q01DX009 (ip), vehicle: other 108 % of control | dose: 25.0 mg/kg/injection, schedule: Q01DX009 (ip), vehicle: other 123 % of control | dose: 50.0 mg/kg/injection, schedule: Q01DX009 (ip), vehicle: other 106 % of control | dose: 100.0 mg/kg/injection, schedule: Q01DX009 (ip), vehicle: other 104 % of control | dose: 200.0 mg/kg/injection, schedule: Q01DX009 (ip), vehicle: other 100 % of control

COC(=O)C12CC=CC1C(C)CC2 (stereo not drawn)
inactive: dose: 75.0 mg/kg/injection, schedule: Q04DX002 (ip), vehicle: Klucel (hydroxypropylcellulose) (HPC) 100 % of control | dose: 150.0 mg/kg/injection, schedule: Q04DX002 (ip), vehicle: Klucel (hydroxypropylcellulose) (HPC) 100 % of control | dose: 300.0 mg/kg/injection, schedule: Q04DX002 (ip), vehicle: Klucel (hydroxypropylcellulose) (HPC) 100 % of control

N#C/C(C(N)=O)=C(\C(=O)c1ccccc1)c1ccccc1
inactive: [1] 99 % of control | [2] 96 % of control
